# Where “and” joins values, the source holds several entries; their conditions need not be identical. Equal entries are not always repeated. Toxic doses and inconclusive results are not listed.
# System: BDF1 mice, P388 leukemia ip, median survival T/C
# Assay: NCI In Vivo Anticancer Drug Screen. Data for tumor model P388 Leukemia (intraperitoneal) in B6D2F1 (BDF1) mice
# Settings: endpoint: median survival time, higher = longer survival
# Outline: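 Reported as T/C, where T is the survival measurement in dosed animals and C the same measurement in vehicle controls.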
structure (smiles),measurement,setting,value
COc1cccc2c1C(=O)c1c(O)c3c(c(O)c1C2=O)C[C@@](O)(C(=O)CO)C[C@@H]3OC1CC(N)C(O)C(C)O1 (some centres undefined),T/C,"dose: 0.25 mg/kg/injection, schedule: Q03HX024 (ip), vehicle: saline",230 % of control
same,T/C,"dose: 0.37 mg/kg/injection, schedule: Q03HX024 (ip), vehicle: saline",285 % of control
same,T/C,"dose: 0.39 mg/kg/injection, schedule: Q01DX009 (ip), vehicle: water",152 % of control
same,T/C,"dose: 0.5 mg/kg/injection, schedule: Q01DX009 (ip), vehicle: saline",250 % of control
same,T/C,"dose: 0.5 mg/kg/injection, schedule: Q03HX024 (ip), vehicle: saline",250 % of control
same,T/C,"dose: 0.75 mg/kg/injection, schedule: Q03HX024 (ip), vehicle: saline",240 % of control
same,T/C,"dose: 0.8 mg/kg/injection, schedule: Q01DX004 (ip), vehicle: saline",270 % of control
same,T/C,"dose: 0.9 mg/kg/injection, schedule: Q01DX009 (ip), vehicle: clinical formulation",263 % of control
same,T/C,"dose: 1.0 mg/kg/injection, schedule: Q01DX001 (ip), vehicle: saline",153 % of control
same,T/C,"dose: 1.0 mg/kg/injection, schedule: Q01DX004 (ip), vehicle: saline",536 % of control
same,T/C,"dose: 1.0 mg/kg/injection, schedule: Q01DX009 (ip), vehicle: saline",285 % of control
same,T/C,"dose: 1.0 mg/kg/injection, schedule: Q03HX008 (ip), vehicle: water",250 % of control
same,T/C,"dose: 1.0 mg/kg/injection, schedule: Q03HX016 (ip), vehicle: saline",290 % of control
same,T/C,"dose: 1.0 mg/kg/injection, schedule: Q04DX003 (ip), vehicle: saline",106 % of control
same,T/C,"dose: 1.0 mg/kg/injection, schedule: Q04DX009 (ip), vehicle: water",117 % of control
same,T/C,"dose: 1.2 mg/kg/injection, schedule: Q01DX009 (ip), vehicle: saline",304 % of control
same,T/C,"dose: 1.2 mg/kg/injection, schedule: Q03HX008 (ip), vehicle: saline",539 % of control
same,T/C,"dose: 1.3 mg/kg/injection, schedule: Q01DX009 (ip), vehicle: clinical formulation",473 % of control
same,T/C,"dose: 1.5 mg/kg/injection, schedule: Q01DX009 (ip), vehicle: saline",361 % of control
same,T/C,"dose: 1.5 mg/kg/injection, schedule: Q03HX024 (sc), vehicle: saline",95 % of control
same,T/C,"dose: 1.56 mg/kg/injection, schedule: Q01DX009 (ip), vehicle: water",224 % of control
same,T/C,"dose: 1.6 mg/kg/injection, schedule: Q01DX004 (ip), vehicle: saline",423 % of control
same,T/C,"dose: 1.73 mg/kg/injection, schedule: Q04DX003 (ip), vehicle: water",256 % of control
same,T/C,"dose: 1.8 mg/kg/injection, schedule: Q01DX009 (ip), vehicle: saline",295 % of control and 306 % of control
same,T/C,"dose: 1.8 mg/kg/injection, schedule: Q03HX008 (ip), vehicle: saline",539 % of control
same,T/C,"dose: 1.8 mg/kg/injection, schedule: Q04DX003 (ip), vehicle: saline",122 % of control
same,T/C,"dose: 1.8 mg/kg/injection, schedule: Q## X003 (ip), vehicle: saline",122 % of control
same,T/C,"dose: 2.0 mg/kg/injection, schedule: Q01DX009 (ip), vehicle: clinical formulation",247 % of control
same,T/C,"dose: 2.0 mg/kg/injection, schedule: Q01DX009 (ip), vehicle: saline",238 % of control and 250 % of control
same,T/C,"dose: 2.0 mg/kg/injection, schedule: Q03HX008 (ip), vehicle: water",254 % of control
same,T/C,"dose: 2.0 mg/kg/injection, schedule: Q04DX003 (ip), vehicle: saline",122 % of control
same,T/C,"dose: 2.0 mg/kg/injection, schedule: Q06HX004 (ip), vehicle: water",300 % of control
same,T/C,"dose: 2.16 mg/kg/injection, schedule: Q04DX003 (ip), vehicle: water",247 % of control
same,T/C,"dose: 2.5 mg/kg/injection, schedule: Q01DX009 (ip), vehicle: saline",119 % of control
same,T/C,"dose: 2.5 mg/kg/injection, schedule: Q01DX009 (sc), vehicle: saline",115 % of control
same,T/C,"dose: 2.5 mg/kg/injection, schedule: Q04DX003 (ip), vehicle: water",237 % of control
same,T/C,"dose: 2.7 mg/kg/injection, schedule: Q01DX009 (ip), vehicle: saline",124 % of control
same,T/C,"dose: 2.7 mg/kg/injection, schedule: Q03HX008 (ip), vehicle: saline",92 % of control
same,T/C,"dose: 2.7 mg/kg/injection, schedule: Q04DX003 (ip), vehicle: saline",122 % of control
same,T/C,"dose: 2.7 mg/kg/injection, schedule: Q## X003 (ip), vehicle: saline",122 % of control
same,T/C,"dose: 2.88 mg/kg/injection, schedule: Q04DX003 (ip), vehicle: water",241 % of control
same,T/C,"dose: 3.0 mg/kg/injection, schedule: Q01DX009 (ip), vehicle: clinical formulation",473 % of control
same,T/C,"dose: 3.0 mg/kg/injection, schedule: Q01DX009 (ip), vehicle: saline",104 % of control
same,T/C,"dose: 3.0 mg/kg/injection, schedule: Q01DX009 (sc), vehicle: saline",100 % of control
same,T/C,"dose: 3.0 mg/kg/injection, schedule: Q03HX008 (ip), vehicle: water",243 % of control
same,T/C,"dose: 3.0 mg/kg/injection, schedule: Q04DX004 (ip), vehicle: saline",112 % of control
same,T/C,"dose: 3.5 mg/kg/injection, schedule: Q01DX009 (ip), vehicle: saline",90 % of control
same,T/C,"dose: 3.5 mg/kg/injection, schedule: Q01DX009 (sc), vehicle: saline",100 % of control
same,T/C,"dose: 3.6 mg/kg/injection, schedule: Q01DX004 (ip), vehicle: saline with Tween-80",123 % of control
same,T/C,"dose: 3.6 mg/kg/injection, schedule: Q04DX003 (ip), vehicle: saline + alcohol",232 % of control
same,T/C,"dose: 3.6 mg/kg/injection, schedule: Q04DX003 (ip), vehicle: water",240 % of control and 259 % of control
same,T/C,"dose: 4.0 mg/kg/injection, schedule: Q03HX008 (ip), vehicle: saline",541 % of control
same,T/C,"dose: 4.0 mg/kg/injection, schedule: Q04DX003 (sc), vehicle: saline",150 % of control
same,T/C,"dose: 4.0 mg/kg/injection, schedule: Q06HX004 (ip), vehicle: water",545 % of control
same,T/C,"dose: 4.4 mg/kg/injection, schedule: Q01DX001 (ip), vehicle: saline",150 % of control
same,T/C,"dose: 4.5 mg/kg/injection, schedule: Q01DX009 (ip), vehicle: clinical formulation",100 % of control
same,T/C,"dose: 4.5 mg/kg/injection, schedule: Q04DX003 (ip), vehicle: saline",539 % of control and 571 % of control
same,T/C,"dose: 4.8 mg/kg/injection, schedule: Q04DX003 (ip), vehicle: water",224 % of control and 247 % of control
same,T/C,"dose: 5.0 mg/kg/injection, schedule: Q01DX001 (ip), vehicle: saline",252 % of control
same,T/C,"dose: 5.0 mg/kg/injection, schedule: Q03HX008 (ip), vehicle: water",89 % of control
same,T/C,"dose: 5.0 mg/kg/injection, schedule: Q07DX006 (ip), vehicle: saline",245 % of control
same,T/C,"dose: 5.5 mg/kg/injection, schedule: Q04DX003 (ip), vehicle: saline",571 % of control
same,T/C,"dose: 5.5 mg/kg/injection, schedule: Q04DX003 (sc), vehicle: saline",150 % of control
same,T/C,"dose: 6.0 mg/kg/injection, schedule: Q01DX001 (ip), vehicle: saline",516 % of control
same,T/C,"dose: 6.0 mg/kg/injection, schedule: Q04DX003 (ip), vehicle: saline + alcohol",270 % of control
same,T/C,"dose: 6.0 mg/kg/injection, schedule: Q04DX003 (ip), vehicle: saline",225 % of control and 153 % of control
same,T/C,"dose: 6.0 mg/kg/injection, schedule: Q04DX003 (ip), vehicle: water",250 % of control and 106 % of control and 123 % of control
same,T/C,"dose: 6.0 mg/kg/injection, schedule: Q## X003 (ip), vehicle: saline",153 % of control
same,T/C,"dose: 6.6 mg/kg/injection, schedule: Q01DX001 (iv), vehicle: saline",109 % of control
same,T/C,"dose: 6.67 mg/kg/injection, schedule: Q04DX003 (ip), vehicle: saline",271 % of control
same,T/C,"dose: 7.5 mg/kg/injection, schedule: Q01DX001 (ip), vehicle: saline",295 % of control
same,T/C,"dose: 7.5 mg/kg/injection, schedule: Q01DX001 (sc), vehicle: saline",150 % of control
same,T/C,"dose: 7.5 mg/kg/injection, schedule: Q07DX006 (ip), vehicle: saline",409 % of control
same,T/C,"dose: 8.0 mg/kg/injection, schedule: Q04DX009 (ip), vehicle: water",150 % of control
same,T/C,"dose: 8.4 mg/kg/injection, schedule: Q03HX008 (ip), vehicle: water",83 % of control
same,T/C,"dose: 10.0 mg/kg/injection, schedule: Q01DX001 (ip), vehicle: water",268 % of control
same,T/C,"dose: 10.0 mg/kg/injection, schedule: Q01DX001 (iv), vehicle: saline",117 % of control
same,T/C,"dose: 10.0 mg/kg/injection, schedule: Q07DX006 (ip), vehicle: saline",313 % of control
same,T/C,"dose: 12.0 mg/kg/injection, schedule: Q01DX001 (ip), vehicle: saline",486 % of control and 516 % of control (2×)
same,T/C,"dose: 15.0 mg/kg/injection, schedule: Q01DX001 (iv), vehicle: saline",235 % of control and 312 % of control
same,T/C,"dose: 16.0 mg/kg/injection, schedule: Q04DX009 (ip), vehicle: water",108 % of control
same,T/C,"dose: 16.7 mg/kg/injection, schedule: Q01DX001 (ip), vehicle: water",112 % of control
same,T/C,"dose: 20.0 mg/kg/injection, schedule: Q01DX001 (ip), vehicle: saline",104 % of control
same,T/C,"dose: 20.0 mg/kg/injection, schedule: Q01DX001 (ip), vehicle: water",79 % of control
